Source: PubChem BioAssay AID1963856 (Molecular Pharmacology Branch, DTP, NCI, 2024)

Tested on: LG0567-F671-PDC KRAS tumor spheroid viability
Assay: Anticancer human tumor LG0567-F671-PDC patient-derived lung adenocarcinoma cell line growth inhibition [KRAS2]
Details: spheroids with HUVEC and MSC; for IC50: curve of first compound; for viability, T/C: stronger effect = lower value
Outline: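 KRAS-mutant tumor cells were grown as spheroids with HUVEC endothelial cells and human MSCs as stroma. Targeted agents were tested alone and with KRAS pathway inhibitors. Doses started at or near clinical Cmax, or 10 microM, descending half-log.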

[1] = second compound 0.1 µM, first compound 0.000316 µM
[2] = second compound 0.1 µM, first compound 0.001 µM
[3] = second compound 0.1 µM, first compound 0.00316 µM
[4] = second compound 0.1 µM, first compound 0.01 µM
[5] = second compound 0.1 µM, first compound 0.0316 µM
[6] = second compound 0.316 µM, first compound 0.000316 µM
[7] = second compound 0.316 µM, first compound 0.001 µM
[8] = second compound 0.316 µM, first compound 0.00316 µM
[9] = second compound 0.316 µM, first compound 0.01 µM
[10] = second compound 0.316 µM, first compound 0.0316 µM
[11] = second compound 1 µM, first compound 0.000316 µM
[12] = second compound 1 µM, first compound 0.001 µM
[13] = second compound 1 µM, first compound 0.00316 µM
[14] = second compound 1 µM, first compound 0.01 µM
[15] = second compound 1 µM, first compound 0.0316 µM
[16] = second compound 3.16 µM, first compound 0.000316 µM
[17] = second compound 3.16 µM, first compound 0.001 µM
[18] = second compound 3.16 µM, first compound 0.00316 µM
[19] = second compound 3.16 µM, first compound 0.01 µM
[20] = second compound 3.16 µM, first compound 0.0316 µM
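Further: drug exposure lasted seven days after spheroids formed for three days.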
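Wherever viability, T/C is given: 100% = DMSO vehicle control viability.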

Structure (SMILES)	IC50 (second compound 0.1 µM) [nM]	IC50 (second compound 0.316 µM) [nM]	IC50 (second compound 1 µM) [nM]	IC50 (second compound 3.16 µM) [nM]	viability, T/C [1] [%]	viability, T/C [2] [%]	viability, T/C [3] [%]	viability, T/C [4] [%]	viability, T/C [5] [%]	viability, T/C [6] [%]	viability, T/C [7] [%]	viability, T/C [8] [%]	viability, T/C [9] [%]	viability, T/C [10] [%]	viability, T/C [11] [%]	viability, T/C [12] [%]	viability, T/C [13] [%]	viability, T/C [14] [%]	viability, T/C [15] [%]	viability, T/C [16] [%]	other results
CC(C)n1nc(-c2ccc3oc(N)nc3c2)c2c(N)ncnc21 + CC1OCC2(CCN(c3cnc(Sc4ccnc(N)c4Cl)c(N)n3)CC2)C1N	< 0.316	< 0.316	< 0.316	< 0.316	43.3	48.6	25.5	18	16.2	35.9	29	21	11.8	7.3	25.8	18.8	11.4	5.96	4.63	17.4	IC50 (second compound 10 µM): < 0.316 nM; viability, T/C (second compound 0.1 µM, first compound 0.1 µM): 10.6%; viability, T/C (second compound 0.316 µM, first compound 0.1 µM): 6.32%; viability, T/C (second compound 1 µM, first compound 0.1 µM): 3.58%; viability, T/C [17]: 12%; viability, T/C [18]: 6.04%; viability, T/C [19]: 2.59%; viability, T/C [20]: 2.37%; viability, T/C (second compound 3.16 µM, first compound 0.1 µM): 1.36%; viability, T/C (second compound 10 µM, first compound 0.000316 µM): 7.01%; viability, T/C (second compound 10 µM, first compound 0.001 µM): 5.93%; viability, T/C (second compound 10 µM, first compound 0.00316 µM): 3.89%; viability, T/C (second compound 10 µM, first compound 0.01 µM): 2.31%; viability, T/C (second compound 10 µM, first compound 0.0316 µM): 1.59%; viability, T/C (second compound 10 µM, first compound 0.1 µM): 1.8%
CC(=O)OC12COC1CC(O)C1(C)C(=O)C(O)C3=C(C)C(OC(=O)C(O)C(NC(=O)OC(C)(C)C)c4ccccc4)CC(O)(C(OC(=O)c4ccccc4)C21)C3(C)C (stereo unspecified)																					viability, T/C (compound 0.01 µM): 67% [middle of 5 runs]; viability, T/C (compound 0.0316 µM): 57.6% [middle of 5 runs]; viability, T/C (compound 0.1 µM): 63.3% [middle of 5 runs]; viability, T/C (compound 0.316 µM): 63.1% [middle of 5 runs]; viability, T/C (compound 1 µM): 73.7% [middle of 5 runs]; viability, T/C (compound 3.16 µM): 70.1% [middle of 5 runs]
CC(=O)Nc1cccc(-n2c(=O)n(C3CC3)c(=O)c3c(Nc4ccc(I)cc4F)n(C)c(=O)c(C)c32)c1 + C=CC(=O)N1CCN(c2nc(OCC3CCCN3C)nc3c2CCN(c2cccc4cccc(C)c24)C3)CC1CC#N	< 0.1	< 0.1	< 0.1	< 0.1	32.3	56.4	24.6	12.1	4.09	33.2	39.7	22.1	19.3	5.95	37.5	23.7	31.7	15.7	6.26	22.8	IC50 (second compound 0.0316 µM): < 0.1 nM; viability, T/C (second compound 0.0316 µM, first compound 0.0001 µM): 36.6%; viability, T/C (second compound 0.0316 µM, first compound 0.000316 µM): 35.6%; viability, T/C (second compound 0.0316 µM, first compound 0.001 µM): 34.5%; viability, T/C (second compound 0.0316 µM, first compound 0.00316 µM): 42%; viability, T/C (second compound 0.0316 µM, first compound 0.01 µM): 24.2%; viability, T/C (second compound 0.0316 µM, first compound 0.0316 µM): 7.65%; viability, T/C (second compound 0.1 µM, first compound 0.0001 µM): 23.8%; viability, T/C (second compound 0.316 µM, first compound 0.0001 µM): 30%; viability, T/C (second compound 1 µM, first compound 0.0001 µM): 38.2%; viability, T/C (second compound 3.16 µM, first compound 0.0001 µM): 30.8%; viability, T/C [17]: 12.8%; viability, T/C [18]: 12%; viability, T/C [19]: 2.28%; viability, T/C [20]: 4.58%
